Test results from patent publication US9834542B2, “LXR modulators” (BRISTOL-MYERS SQUIBB COMPANY, priority 2013, dated 2017).

Target: T1, LXRβ (Homo sapiens, UniProt P55055)
T1 construct: Co-transfection expression plasmids, comprising full-length LXRα (pCMX-h LXRα[…] or LXRβ (pCMX-hLXRβ)); expressed in transfected cells; host or cells: CV-1 African Green Monkey Kidney Cells
T1 sequence (P55055 1-460): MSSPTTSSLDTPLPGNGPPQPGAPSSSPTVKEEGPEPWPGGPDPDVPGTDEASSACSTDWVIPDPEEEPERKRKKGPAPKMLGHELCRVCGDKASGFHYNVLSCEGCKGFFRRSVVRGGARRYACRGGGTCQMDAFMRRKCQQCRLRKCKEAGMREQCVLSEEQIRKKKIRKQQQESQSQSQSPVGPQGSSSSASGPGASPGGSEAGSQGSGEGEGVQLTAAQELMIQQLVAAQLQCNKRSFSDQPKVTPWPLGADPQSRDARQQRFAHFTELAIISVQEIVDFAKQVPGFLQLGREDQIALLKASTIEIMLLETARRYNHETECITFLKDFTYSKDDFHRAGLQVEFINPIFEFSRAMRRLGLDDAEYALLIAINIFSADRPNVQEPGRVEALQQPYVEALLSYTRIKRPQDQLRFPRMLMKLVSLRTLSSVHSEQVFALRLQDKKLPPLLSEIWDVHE
T1 sequence (P19793 1-462 partner): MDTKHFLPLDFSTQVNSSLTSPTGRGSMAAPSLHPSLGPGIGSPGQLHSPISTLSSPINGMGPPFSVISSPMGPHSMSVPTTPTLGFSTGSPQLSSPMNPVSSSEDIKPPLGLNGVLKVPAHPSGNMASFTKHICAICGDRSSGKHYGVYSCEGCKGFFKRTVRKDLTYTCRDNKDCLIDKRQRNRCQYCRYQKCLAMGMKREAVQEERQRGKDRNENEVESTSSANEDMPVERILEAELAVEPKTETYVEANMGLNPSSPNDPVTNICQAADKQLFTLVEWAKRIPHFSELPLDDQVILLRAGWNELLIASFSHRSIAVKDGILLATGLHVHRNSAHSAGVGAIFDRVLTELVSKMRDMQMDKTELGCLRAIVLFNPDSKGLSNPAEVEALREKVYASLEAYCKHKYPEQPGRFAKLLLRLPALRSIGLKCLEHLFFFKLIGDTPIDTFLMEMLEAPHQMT
Assay: Co-transfection assay (LXRE luciferase reporter), LXRβ
Format: cell-based
Details: for EC50: CV-1 cells transfected with pCMX-hLXRβ and LXREx1-Tk-Luciferase, 20 hours incubation; for Emax: LXRβ co-transfection, relative to high control 1-(2,4-difluorobenzyl)-2-oxo-6-(4-phenoxyphenyl)-4-(trifluoromethyl)-1,2-dihydropyridine-3-carbonitrile, read-out: % Efficacy
Outline: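 Luciferase signal from an LXREx1-Tk reporter was measured after transfected CV-1 cells (full-length hLXRβ, endogenous RXR) were treated with compounds for 20 h at 37 °C, ≤0.5% DMSO. EC50 came from four-parameter fits of 11-point ½-log curves; % efficacy versus a reference agonist maximum.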

Question: What does the source list for `Cc1nc(C(F)(F)F)cn1-c1ccc(-c2cc(F)c(CO)c(S(C)(=O)=O)c2)cc1-n1nncc1-c1ccc(OC(F)(F)F)cc1` [Example 211, (3-fluoro-4′-(2-methyl-4-(trifluoromethyl)-1H-imidazol-1-yl)-5-(methylsulfonyl)-3′-(5-(4-(trifluoromethoxy)phenyl)-1H-1,2,3-triazol-1-yl)-[1,1′-biphenyl]-4-yl)methanol]?
Answer: EC50: 127 nM; Emax: 99%

Question: For `Cc1nc(-c2cc(-c3cccc(S(C)(=O)=O)c3)ccc2-n2cc(C(F)(F)F)nc2C)c(-c2ccc(OC(F)F)c(OCC3CC3)c2)o1` [Example 382, 5-(3-(cyclopropylmethoxy)-4-(difluoromethoxy)phenyl)-2-methyl-4-(4-(2-methyl-4-(trifluoromethyl)-1H-imidazol-1-yl)-3′-(methylsulfonyl)biphenyl-3-yl)oxazole], which EC50 is on record?
Answer: Its EC50 is 57 nM.

Question: What about the Emax of the same compound?
Answer: The Emax was 62%.

Question: For `Cc1ncc(-c2oc(C)nc2-c2cc(-c3cc(F)c(CO)c(S(C)(=O)=O)c3)ccc2-n2cc(C(F)(F)F)nc2C)cn1` [Example 428, (3-fluoro-4′-(2-methyl-4-(trifluoromethyl)-1H-imidazol-1-yl)-3′-(2-methyl-5-(2-methylpyrimidin-5-yl)oxazol-4-yl)-5-(methylsulfonyl)biphenyl-4-yl)methanol], which EC50 is on record?
Answer: Its EC50 is 3090 nM.

Question: And the Emax?
Answer: Its Emax is 50%.

Question: `CCC(F)(F)c1cn(-c2ccc(-c3cc(F)c(CO)c(S(C)(=O)=O)c3)cc2-c2nc(C)oc2-c2ccc(OC(F)(F)F)cc2)c(C)n1` [Example 518, (4′-(4-(1,1-difluoropropyl)-2-methyl-1H-imidazol-1-yl)-3-fluoro-3′-(2-methyl-5-(4-(trifluoromethoxy)phenyl)oxazol-4-yl)-5-(methylsulfonyl)-[1,1′-biphenyl]-4-yl)methanol] was tested. Which EC50 did it give?
Answer: The EC50 was 107 nM.

Question: What about the Emax of the same compound?
Answer: Its Emax is 49%.

Question: Which results are given for `Cc1nc(-c2ccc(Cl)cc2Cl)c(-c2cc(-c3ccc(CO)c(S(C)(=O)=O)c3)ccc2-n2cc(C(F)(F)F)nc2C)o1` [Example 614, (3′-(4-(2,4-dichlorophenyl)-2-methyloxazol-5-yl)-4′-(2-methyl-4-(trifluoromethyl)-1H-imidazol-1-yl)-3-(methylsulfonyl)-[1,1′-biphenyl]-4-yl)methanol]?
Answer: EC50: 47 nM; Emax: 103%

Question: With `Cc1nc(C(F)(F)F)cn1-c1ccc(-c2cc(F)cc(S(C)(=O)=O)c2)cc1-c1nc(C(F)(F)F)cn1-c1ccc2c(c1)OC(F)(F)O2` [Example 641, 1-(2,2-difluorobenzo[d][1,3]dioxol-5-yl)-2-(3′-fluoro-4-(2-methyl-4-(trifluoromethyl)-1H-imidazol-1-yl)-5′-(methylsulfonyl)biphenyl-3-yl)-4-(trifluoromethyl)-1H-imidazole] as the compound, how does the EC50 read?
Answer: The EC50 was 721 nM.

Question: What about the Emax of the same compound?
Answer: The Emax was 59%.

Question: `Cc1nc(C(F)(F)F)cn1-c1ccc(-c2cc(Cl)c(CO)c(S(C)(=O)=O)c2)cc1-n1nncc1Cc1ccc(Cl)cc1` [Example 122, (3-chloro-3′-{5-[(4-chlorophenyl)methyl]-1H-1,2,3-triazol-1-yl}-5-(methylsulfonyl)-4′-[2-methyl-4-(trifluoromethyl)-1H-imidazol-1-yl]biphenyl-4-yl)methanol] was tested. Which EC50 did it give?
Answer: The EC50 was 643 nM.

Question: And the Emax?
Answer: The Emax was 64%.

Question: With `CCc1nc(-c2cc(-c3cc(F)c(CO)c(S(C)(=O)=O)c3)ccc2-n2cc(C(F)(F)F)nc2C)c(-c2ccc3c(c2)OC(F)(F)O3)o1` [Example 479, (3′-(5-(2,2-difluorobenzo[d][1,3]dioxol-5-yl)-2-ethyloxazol-4-yl)-3-fluoro-4′-(2-methyl-4-(trifluoromethyl)-1H-imidazol-1-yl)-5-(methylsulfonyl)biphenyl-4-yl)methanol] as the compound, how does the EC50 read?
Answer: The EC50 was 30 nM.

Question: What about the Emax of the same compound?
Answer: Its Emax is 81%.

Question: For `Cc1cc(-c2oc(C)nc2-c2cc(-c3cccc(S(C)(=O)=O)c3)ccc2-n2cc(Cl)nc2C)cc(Cl)n1` [Example 468, 4-(4-(4-chloro-2-methyl-1H-imidazol-1-yl)-3′-(methylsulfonyl)biphenyl-3-yl)-5-(2-chloro-6-methylpyridin-4-yl)-2-methyloxazole], which EC50 is on record?
Answer: Its EC50 is 442 nM.

Question: What about the Emax of the same compound?
Answer: The Emax was 47%.

Question: With `Cc1nc(-c2ccc3c(c2)OC(F)(F)O3)c(-c2cc(-c3cc(Cl)c(CO)c(S(C)(=O)=O)c3)ccc2-n2cc(C(F)(F)F)nc2C)o1` [Example 623, (3-chloro-3′-(4-(2,2-difluorobenzo[d][1,3]dioxol-5-yl)-2-methyloxazol-5-yl)-4′-(2-methyl-4-(trifluoromethyl)-1H-imidazol-1-yl)-5-(methylsulfonyl)-[1,1′-biphenyl]-4-yl)methanol] as the compound, how does the EC50 read?
Answer: The EC50 was 203 nM.

Question: What about the Emax of the same compound?
Answer: Its Emax is 80%.

Question: Which results are given for `Cc1nc(C(F)(F)F)cn1-c1ccc(-c2cccc(C(C)(C)C(N)=O)c2)cc1-n1nncc1Cc1cccc(Cl)c1` [Example 114, 2-(3′-{5-[(3-chlorophenyl)methyl]-1H-1,2,3-triazol-1-yl}-4′-[2-methyl-4-(trifluoromethyl)-1H-imidazol-1-yl]biphenyl-3-yl)-2-methylpropanamide]?
Answer: EC50: 940 nM; Emax: 98%

Question: Which EC50 does the source give for `Cc1nc(C(F)F)cn1-c1ccc(-c2ccc(CO)c(S(C)(=O)=O)c2)cc1-n1nncc1-c1ccc(OC(F)(F)F)cc1` [Example 159, {4′-[4-(difluoromethyl)-2-methyl-1H-imidazol-1-yl]-3-(methylsulfonyl)-3′-(5-{4-[(trifluoromethyl)oxy]phenyl}-1H-1,2,3-triazol-1-yl)biphenyl-4-yl}methanol] here?
Answer: The EC50 was 783 nM.

Question: And the Emax?
Answer: Its Emax is 97%.

Question: Which results are given for `Cc1nc(C(F)(F)F)cn1-c1c(F)cc(-c2cccc(S(=O)(=O)N3CCCC3)c2)cc1-n1nncc1-c1ccc(OC(F)(F)F)cc1` [Example 199, 1-{5-fluoro-4-[2-methyl-4-(trifluoromethyl)-1H-imidazol-1-yl]-3′-(pyrrolidin-1-ylsulfonyl)biphenyl-3-yl}-5-{4-[(trifluoromethyl)oxy]phenyl}-1H-1,2,3-triazole]?
Answer: EC50: 384 nM; Emax: 66%

Question: How did the EC50 turn out when `Cc1nc(C(F)(F)F)cn1-c1ccc(-c2cc(F)c(CO)c(S(C)(=O)=O)c2)cc1-n1nncc1C(=O)c1cccc(C(F)(F)F)c1` [Example 136, (1-{3′-fluoro-4′-(hydroxymethyl)-5′-(methylsulfonyl)-4-[2-methyl-4-(trifluoromethyl)-1H-imidazol-1-yl]biphenyl-3-yl}-1H-1,2,3-triazol-5-yl)[3-(trifluoromethyl)phenyl]meth-anone] was run?
Answer: Its EC50 is 764 nM.

Question: And the Emax?
Answer: The Emax was 69%.

Question: Which results are given for `Cc1nc(-c2cc(-c3ccc(C)c(S(C)(=O)=O)c3)ccc2-n2cc(C(F)(F)F)nc2C)c(-c2ccc(C(F)(F)F)nc2Cl)o1` [Example 476, 5-(2-chloro-6-(trifluoromethyl)pyridin-3-yl)-2-methyl-4-(4′-methyl-4-(2-methyl-4-(trifluoromethyl)-1H-imidazol-1-yl)-3′-(methylsulfonyl)biphenyl-3-yl)oxazole]?
Answer: EC50: 726 nM; Emax: 39%

Question: For `Cc1nc(C(F)(F)F)cn1-c1ccc(-c2ccc(CO)c(S(C)(=O)=O)c2)cc1-c1nc(C(C)C)oc1-c1ccc(OC(F)(F)F)cc1` [Example 521, (3′-(2-isopropyl-5-(4-(trifluoromethoxy)phenyl)oxazol-4-yl)-4′-(2-methyl-4-(trifluoromethyl)-1H-imidazol-1-yl)-3-(methylsulfonyl)-[1,1′-biphenyl]-4-yl)methanol], which EC50 is on record?
Answer: The EC50 was 21 nM.

Question: And the Emax?
Answer: Its Emax is 71%.

Question: Which results are given for `Cc1nc(-c2cc(-c3cccc(S(C)(=O)=O)c3)ccc2-n2cc(C(F)(F)F)nc2C)c(-c2ccc(C(F)(F)F)cc2)o1` [Example 513, 2-methyl-4-(4-(2-methyl-4-(trifluoromethyl)-1H-imidazol-1-yl)-3′-(methylsulfonyl)biphenyl-3-yl)-5-(4-(trifluoromethyl)phenyl)oxazole]?
Answer: EC50: 137 nM; Emax: 64%

Question: Which EC50 does the source give for `CNS(=O)(=O)c1cccc(-c2ccc(-n3cc(C(F)(F)F)nc3C)c(-c3nc(C)oc3-c3ccc(OC(F)F)cc3)c2)c1` [Example 540, 3′-(5-(4-(difluoromethoxy)phenyl)-2-methyloxazol-4-yl)-N-methyl-4′-(2-methyl-4-(trifluoromethyl)-1H-imidazol-1-yl)-[1,1′-biphenyl]-3-sulfonamide] here?
Answer: The EC50 was 28 nM.

Question: What about the Emax of the same compound?
Answer: The Emax was 106%.

Question: With `Cc1nc(-c2cc(-c3cc(F)c(CO)c(S(C)(=O)=O)c3)ccc2-n2cc(C(F)(F)F)nc2C)c(-c2cccnc2C)o1` [Example 395, (3-fluoro-4′-(2-methyl-4-(trifluoromethyl)-1H-imidazol-1-yl)-3′-(2-methyl-5-(2-methylpyridin-3-yl)oxazol-4-yl)-5-(methylsulfonyl)biphenyl-4-yl)methanol] as the compound, how does the EC50 read?
Answer: Its EC50 is 1230 nM.

Question: And the Emax?
Answer: The Emax was 61%.
